Patent US10899910B2, “Quaternary cationic polymers” (ECOLAB USA, INC., priority 2016, dated 2021)

Key:
[1] = tested on: mixture of aerobic populations from more than 30 cooling systems in North America; assay: Non-oxidative antimicrobial efficiency test in cooling water (ASTM E645-02a); type: cell-based, bacteria (specific species not identified); conditions: at the tested concentrations
Protocol: Antimicrobial efficiency of the synthesized compounds was tested using a non-oxidative antimicrobial efficiency test procedure according to ASTM method for microbiocide efficiency in cooling water (E645-02a, 2005). The bacteria used in the efficacy testing comprised a mixture of aerobic populations from more than 30 cooling systems in North America. The specific species were not identified. Those species were grown on R2A agar.
In one experiment, various concentrations (0 ppm, 5 ppm, 10 ppm, 20 ppm, 30 ppm, 40 ppm, and 50 ppm) of Compound 1 were applied to bacteria in water. The log 10 concentration in colony forming units (CFU/ml) was measured at four time points (0 min, 60 min, 240 min, and 1440 min).
The microbial activity of Compounds 1-4 at a concentration of 50 ppm was tested according to the same procedure described above.
The antimicrobial activity of Compound 4 was tested using the same procedures as described above.

[2] = tested on: bacterial spores or thermophiles; assay: Anti-spore and anti-thermophile activity; type: cell-based; conditions: about 20 ppm; for Log Reduction: vs control
Protocol: The effect of the compounds on bacterial spores or thermophiles was also tested. Compounds 1 and 4 were incubated separately with spores or thermophiles at a concentration of about 20 ppm, and the reduction in concentration was measured at four time points (See Table 3).

[3] = Surface tension measurement (Tracker tensiometer); type: physicochemical; conditions: room temperature
Protocol: Surface tension measurements were conducted on a Tracker tensiometer (Teclis Instruments) at room temperature. Various concentrations of surfactant solutions were prepared and measurements were conducted.
The surface tension as a function of concentration of the cationic surfactant samples were measured and are listed in Table 2, where NT means not tested.

[4] = tested on: collection of aerobic bacteria from 30 water samples in cooling towers across North America; assay: Biofilm reduction (biofilm inhibition test, stain absorbance at 590 nm); type: cell-based; conditions: for (Comp. - Single Quat 2)*100 / Single Quat 2: biofilm reduction relative to Single Quat 2
Protocol: Biofilm reduction experiments were conducted to test the efficacy of multi-quaternary cationic polymers compared to single quaternary compounds. Two different compositions were prepared containing single quaternary compounds: a composition (Single Quat 1) comprising about 50% by weight bisoctyl dimethyl ammonium chloride (CAS #5538-94-3) and about 5-10% by weight glycerin; and a composition (Single Quat 2) comprising about 50% by weight didecyl-dimethyl ammonium chloride (CAS #7173-51-5) and about 10-30% by weight ethanol. The test bacteria comprised a collection of aerobic bacteria from 30 water samples in cooling towers across North America. Different concentrations of cationic polymer salts and single quaternary compounds were tested ranging from about 0.8 ppm to about 1000 ppm. Using the biofilm inhibition test protocols, the absorbed stains were extracted and absorbance was measured at 590 nm. The biofilm reduction was calculated by comparing the absorbance of treated vs untreated controls, then averaged over six replicates.

[5] = Corrosion bubble cell test (Linear Polarization Resistance); conditions: 2 ppm with 1% 2ME synergist; CO2-saturated brine/hydrocarbon, 80° C.; three hours baseline (Tables 8, 9)
Protocol: (§1) Cationic polymer salts were evaluated for corrosion performance as compared to a C12-C18 alkyl dimethyl benzyl ammonium chloride via a bubble test procedure. The bubble test simulates low flow areas where little or no mixing of water and oil occurs. The test was conducted using brine (80% of the brine being 3% sodium chloride brine and 20% of the brine being a hydrocarbon containing 75% LVT-200 kerosene oil and 25% xylene). The brine was placed into kettles and purged with carbon dioxide. The brine was continually purged with carbon dioxide to saturate the brine prior to starting the test. After the test began, the test cell was blanketed with carbon dioxide one hour prior to electrode insertion and through the duration of the test to maintain saturation. The kettles were stirred at 150 revolutions per minute (rpm) for the duration of the test to maintain thermal equilibrium at 80° C. The corrosion rate was measured by Linear Polarization Resistance (LPR) techniques. The working electrode used was carbon steel. The counter and reference electrodes were both 1018 carbon steel. The electrodes were all cleaned and polished prior to testing. Data were collected for three hours before 20 ppm of each of the compositions (containing 2 ppm of each of various pentaquaternary cationic polymer salts or the comparative C12-C18 alkyl dimethyl benzyl ammonium chloride and 1% 2-mercaptoethanol (2ME) as synergist in an organic solvent) was dosed into its respective cell. Data were collected overnight. A low concentration of the compositions was used to differentiate between the compositions.
Corrosion bubble cell tests were performed according to the method of Example A1 to evaluate a hexaquaternary cationic polymer salt for corrosion performance as compared to a C12-C18 alkyl dimethyl benzyl ammonium chloride. Data were collected for three hours before 20 ppm of each of the compositions (containing 2 ppm of a hexaquaternary cationic polymer salt or the comparative C12-C18 alkyl dimethyl benzyl ammonium chloride and 1% 2ME as synergist in an organic solvent) was dosed into its respective cell. Data were collected overnight. A low concentration of the compositions was used to differentiate between the compositions.
as §1, with “six” for “three”, “polyethyleneimine-based” for “pentaquaternary”, “cell. However, for the comparative composition, data was only collected three hours before addition of the compositions.” for “cell.”

## CCCCCCCCCCCCCCCCCC[N+](C)(C)CC(O)CN(CCN(CC(O)C[N+](C)(C)C)CC(O)C[N+](C)(C)CCCCCCCCCCCCCCCCCC)CCN(CC(O)C[N+](C)(C)C)CC(O)C[N+](C)(C)CCCCCCCCCCCCCCCCCC.[Cl-].[Cl-].[Cl-].[Cl-].[Cl-] (centres unmarked) [Compound 4]
[1]
  antimicrobial activity: significant antimicrobial activity
[2]; contact time 0 min
  Log cfu/ml: 2.53 Log cfu/ml
  Log Reduction: −0.04
[2]; contact time 60 min
  Log cfu/ml: 1.6 Log cfu/ml
  Log Reduction: 0.74
[2]; contact time 240 min
  Log cfu/ml: 0.00 Log cfu/ml
  Log Reduction: 2.48
[2]; contact time 1440 min
  Log cfu/ml: 1.78 Log cfu/ml
  Log Reduction: 0.75

## CCCCCCCCCCCCCCCCCC[N+](C)(C)CC(O)CN(CCN(CCN(CC(O)C[N+](C)(C)C)CC(O)C[N+](C)(C)CCCCCCCCCCCCCCCCCC)CC(O)C[N+](C)(C)C)CC(O)C[N+](C)(C)C.[Cl-].[Cl-].[Cl-].[Cl-].[Cl-] (centres unmarked) [Compound 9]
[3]; concentration 0.010 %
  Surface tension: 73.11 mN/m
[3]; concentration 0.025 %
  Surface tension: 69.16 mN/m
[3]; concentration 0.050 %
  Surface tension: 60.77 mN/m
[3]; concentration 0.100 %
  Surface tension: 54.69 mN/m
[3]; concentration 0.200 %
  Surface tension: 52.05 mN/m
[3]; concentration 0.500 %
  Surface tension: 50.09 mN/m
[3]; concentration 1.000 %
  Surface tension: 49.38 mN/m
[4]; active conc. 0.8 ppm
  Biofilm reduction: 20.5%
  (Comp. - Single Quat 2)*100 / Single Quat 2: 314.7%
[4]; active conc. 1.6 ppm
  Biofilm reduction: 35.9%
  (Comp. - Single Quat 2)*100 / Single Quat 2: −9.6%
[4]; active conc. 3.0 ppm
  Biofilm reduction: 41.2%
  (Comp. - Single Quat 2)*100 / Single Quat 2: −43.2%
[4]; active conc. 6.0 ppm
  Biofilm reduction: 45.4%
  (Comp. - Single Quat 2)*100 / Single Quat 2: −11.1%
[4]; active conc. 8.0 ppm
  Biofilm reduction: 62.6%
  (Comp. - Single Quat 2)*100 / Single Quat 2: −8.6%
[4]; active conc. 12.0 ppm
  Biofilm reduction: 70.9%
  (Comp. - Single Quat 2)*100 / Single Quat 2: −13.2%
[4]; active conc. 16.0 ppm
  Biofilm reduction: 79.0%
  (Comp. - Single Quat 2)*100 / Single Quat 2: −15.5%
[4]; active conc. 25.0 ppm
  Biofilm reduction: 76.8%
  (Comp. - Single Quat 2)*100 / Single Quat 2: −15.9%
[4]; active conc. 31.0 ppm
  Biofilm reduction: 46.9%
  (Comp. - Single Quat 2)*100 / Single Quat 2: −50.8%
[4]; active conc. 50.0 ppm
  Biofilm reduction: 77.6%
  (Comp. - Single Quat 2)*100 / Single Quat 2: −15.9%
[4]; active conc. 62.0 ppm
  Biofilm reduction: 90.7%
  (Comp. - Single Quat 2)*100 / Single Quat 2: −0.4%
[4]; active conc. 100.0 ppm
  Biofilm reduction: 97.3%
  (Comp. - Single Quat 2)*100 / Single Quat 2: 41.9%
[4]; active conc. 125.0 ppm
  Biofilm reduction: 98.9%
  (Comp. - Single Quat 2)*100 / Single Quat 2: 88.6%
[4]; active conc. 250.0 ppm
  Biofilm reduction: 99.5%
  (Comp. - Single Quat 2)*100 / Single Quat 2: 55.3%
[4]; active conc. 500.0 ppm
  Biofilm reduction: 99.6%
  (Comp. - Single Quat 2)*100 / Single Quat 2: 23.7%
[4]; active conc. 1000.0 ppm
  Biofilm reduction: 99.6%
  (Comp. - Single Quat 2)*100 / Single Quat 2: 33.5%
[4]; at concentrations about 100 ppm
  reduction in biofilm formation: greater than 95%
[5]
  % Protection: 60%
